Here are results for 25 compounds from patent US9346798B2, “Dihydrobenzoxazine and tetrahydroquinoxaline sodium channel inhibitors” (AMGEN INC., priority 2012, dated 2016).

Where only a bound is given, the exact number is not on record here.

Assay type in all cases: cell-based
Series [1] deals with T1, Nav 1.7 (Homo sapiens (Human), UniProt Q15858). The experiment in a line: Nav 1.7 in vitro assay, IonWorks Quattro (IWQ) population patch-clamp. Conditions: HEK 293 cells stably transfected with Nav 1.7; 26th pulse to -20 mV.
T1 sequence (Q15858 whole entry): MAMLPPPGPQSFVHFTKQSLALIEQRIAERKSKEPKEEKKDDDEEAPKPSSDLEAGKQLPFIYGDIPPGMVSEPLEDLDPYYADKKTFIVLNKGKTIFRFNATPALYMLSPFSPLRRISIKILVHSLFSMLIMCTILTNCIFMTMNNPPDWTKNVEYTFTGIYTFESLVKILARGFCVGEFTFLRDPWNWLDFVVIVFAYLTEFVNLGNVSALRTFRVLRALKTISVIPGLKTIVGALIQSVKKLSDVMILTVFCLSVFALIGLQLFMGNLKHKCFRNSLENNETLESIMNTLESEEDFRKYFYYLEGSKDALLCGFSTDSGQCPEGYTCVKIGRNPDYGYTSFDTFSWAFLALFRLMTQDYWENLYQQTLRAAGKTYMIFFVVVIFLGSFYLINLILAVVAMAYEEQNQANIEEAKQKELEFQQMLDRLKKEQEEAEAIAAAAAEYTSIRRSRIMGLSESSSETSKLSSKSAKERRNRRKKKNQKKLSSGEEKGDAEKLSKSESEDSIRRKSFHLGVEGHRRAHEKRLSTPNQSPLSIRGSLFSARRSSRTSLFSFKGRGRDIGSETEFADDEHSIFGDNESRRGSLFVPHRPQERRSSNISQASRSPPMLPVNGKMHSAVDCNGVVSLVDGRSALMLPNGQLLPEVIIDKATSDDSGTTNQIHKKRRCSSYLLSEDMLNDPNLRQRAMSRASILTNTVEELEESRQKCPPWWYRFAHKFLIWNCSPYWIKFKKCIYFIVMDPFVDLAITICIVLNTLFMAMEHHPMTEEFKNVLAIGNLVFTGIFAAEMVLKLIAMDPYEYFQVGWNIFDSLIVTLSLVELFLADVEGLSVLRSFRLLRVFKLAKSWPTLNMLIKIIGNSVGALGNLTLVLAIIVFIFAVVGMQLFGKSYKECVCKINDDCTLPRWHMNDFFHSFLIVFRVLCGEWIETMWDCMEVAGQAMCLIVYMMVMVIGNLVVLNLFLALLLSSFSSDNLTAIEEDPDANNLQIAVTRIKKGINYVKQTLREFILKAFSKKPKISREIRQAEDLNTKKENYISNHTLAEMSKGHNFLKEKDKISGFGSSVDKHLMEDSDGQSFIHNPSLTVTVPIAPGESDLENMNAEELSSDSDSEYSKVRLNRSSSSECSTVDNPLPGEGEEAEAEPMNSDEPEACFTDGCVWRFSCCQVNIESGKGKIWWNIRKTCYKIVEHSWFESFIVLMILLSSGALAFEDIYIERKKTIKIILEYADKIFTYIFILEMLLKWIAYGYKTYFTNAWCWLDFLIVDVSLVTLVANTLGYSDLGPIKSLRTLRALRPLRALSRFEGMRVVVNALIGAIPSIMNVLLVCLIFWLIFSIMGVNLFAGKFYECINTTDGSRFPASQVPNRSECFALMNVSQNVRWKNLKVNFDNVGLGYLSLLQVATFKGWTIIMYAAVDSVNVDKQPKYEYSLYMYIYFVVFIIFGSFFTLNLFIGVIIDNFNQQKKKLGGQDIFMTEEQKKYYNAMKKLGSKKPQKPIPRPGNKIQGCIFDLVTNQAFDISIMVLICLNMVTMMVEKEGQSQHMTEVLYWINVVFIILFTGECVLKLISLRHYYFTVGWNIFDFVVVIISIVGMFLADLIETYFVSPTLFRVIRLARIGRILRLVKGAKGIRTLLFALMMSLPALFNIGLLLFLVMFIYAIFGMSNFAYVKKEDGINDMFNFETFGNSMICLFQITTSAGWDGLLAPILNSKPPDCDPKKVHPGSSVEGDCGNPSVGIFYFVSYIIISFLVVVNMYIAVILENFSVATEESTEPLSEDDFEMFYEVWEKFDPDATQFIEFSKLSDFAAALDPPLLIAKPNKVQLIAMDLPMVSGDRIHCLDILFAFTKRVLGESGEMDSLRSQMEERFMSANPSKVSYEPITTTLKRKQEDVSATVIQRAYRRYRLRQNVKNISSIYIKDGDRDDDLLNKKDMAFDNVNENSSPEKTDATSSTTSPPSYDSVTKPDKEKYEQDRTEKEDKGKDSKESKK
Series [2] deals with Nav 1.5 (Homo sapiens (Human), UniProt Q14524). The experiment in a line: Nav 1.5 in vitro assay, IonWorks Quattro (IWQ) population patch-clamp. Conditions: HEK 293 cells stably transfected with Nav 1.5; 26th pulse to -20 mV. On the technique in general: In patch-clamp work, channel activity is measured electrically.
Chain of Nav 1.5 (Q14524 whole entry): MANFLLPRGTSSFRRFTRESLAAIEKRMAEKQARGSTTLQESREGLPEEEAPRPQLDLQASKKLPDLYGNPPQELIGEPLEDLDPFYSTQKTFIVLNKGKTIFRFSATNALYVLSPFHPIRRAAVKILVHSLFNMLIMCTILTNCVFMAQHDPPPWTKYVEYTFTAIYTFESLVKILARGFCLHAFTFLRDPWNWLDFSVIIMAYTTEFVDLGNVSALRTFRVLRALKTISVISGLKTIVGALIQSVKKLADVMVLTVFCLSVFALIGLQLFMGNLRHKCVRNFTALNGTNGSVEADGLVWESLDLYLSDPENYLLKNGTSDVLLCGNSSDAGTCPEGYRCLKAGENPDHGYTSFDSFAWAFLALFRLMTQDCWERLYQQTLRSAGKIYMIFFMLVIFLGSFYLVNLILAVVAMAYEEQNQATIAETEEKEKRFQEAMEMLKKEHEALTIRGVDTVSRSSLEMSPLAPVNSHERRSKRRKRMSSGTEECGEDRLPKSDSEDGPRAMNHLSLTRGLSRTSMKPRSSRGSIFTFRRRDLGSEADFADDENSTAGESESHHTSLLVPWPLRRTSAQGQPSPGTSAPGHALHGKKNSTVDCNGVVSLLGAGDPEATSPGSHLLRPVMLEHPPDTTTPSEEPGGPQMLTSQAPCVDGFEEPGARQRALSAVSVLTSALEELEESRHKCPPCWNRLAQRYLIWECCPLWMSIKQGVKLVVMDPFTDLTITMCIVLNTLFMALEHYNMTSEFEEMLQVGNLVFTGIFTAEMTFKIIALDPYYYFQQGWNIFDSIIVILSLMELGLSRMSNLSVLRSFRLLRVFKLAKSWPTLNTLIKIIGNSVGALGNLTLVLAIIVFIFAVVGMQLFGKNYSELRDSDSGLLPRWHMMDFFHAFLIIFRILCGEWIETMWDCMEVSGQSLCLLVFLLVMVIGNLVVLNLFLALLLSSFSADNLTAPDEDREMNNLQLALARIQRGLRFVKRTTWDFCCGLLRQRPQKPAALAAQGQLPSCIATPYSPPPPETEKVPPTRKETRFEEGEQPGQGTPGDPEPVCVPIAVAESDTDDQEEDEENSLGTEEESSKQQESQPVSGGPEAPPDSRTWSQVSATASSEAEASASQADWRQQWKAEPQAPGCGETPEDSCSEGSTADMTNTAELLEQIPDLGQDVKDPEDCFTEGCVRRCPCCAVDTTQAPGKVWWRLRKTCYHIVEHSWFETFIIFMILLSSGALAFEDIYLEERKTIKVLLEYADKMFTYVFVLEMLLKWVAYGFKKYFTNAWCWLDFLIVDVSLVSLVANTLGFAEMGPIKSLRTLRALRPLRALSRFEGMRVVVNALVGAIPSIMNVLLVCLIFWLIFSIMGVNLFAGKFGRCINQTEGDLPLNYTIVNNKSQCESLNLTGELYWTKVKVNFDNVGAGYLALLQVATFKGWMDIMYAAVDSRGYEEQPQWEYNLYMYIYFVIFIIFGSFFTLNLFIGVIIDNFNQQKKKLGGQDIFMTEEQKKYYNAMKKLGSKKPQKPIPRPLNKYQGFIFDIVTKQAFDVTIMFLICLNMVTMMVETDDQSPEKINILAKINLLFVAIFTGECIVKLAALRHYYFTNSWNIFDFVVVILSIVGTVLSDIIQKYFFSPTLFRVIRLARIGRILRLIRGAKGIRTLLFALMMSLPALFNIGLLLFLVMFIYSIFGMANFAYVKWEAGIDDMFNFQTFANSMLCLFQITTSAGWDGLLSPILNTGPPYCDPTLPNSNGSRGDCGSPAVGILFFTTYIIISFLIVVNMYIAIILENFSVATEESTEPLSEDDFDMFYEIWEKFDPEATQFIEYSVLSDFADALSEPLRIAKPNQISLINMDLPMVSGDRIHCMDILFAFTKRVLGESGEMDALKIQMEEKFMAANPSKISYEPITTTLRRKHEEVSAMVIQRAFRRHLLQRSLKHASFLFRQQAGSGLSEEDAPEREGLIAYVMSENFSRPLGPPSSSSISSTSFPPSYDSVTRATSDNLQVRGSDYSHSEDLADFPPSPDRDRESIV
For series [3], the target named is T1, Nav 1.7. The experiment in a line: Nav 1.7 in vitro PX assay, PatchXpress whole cell voltage clamp. Conditions: HEK 293 cells stably transfected with human Nav1.7; partially inactivated state (20 to 50% inactivation). In short, it runs like this:
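HEK293 cells stably expressing human Nav1.7, whole-cell voltage clamp at a holding potential giving 20–50% inactivation; currents elicited by 20 msec pulses to −10 mV at 0.1 Hz.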

As usually defined, the IC50 is the concentration that gives 50% inhibition. The low end stands for higher potency, the high end for lower potency. For the compound `O=S(=O)(Nc1ncns1)c1ccc2c(c1)OCCN2c1ccc(C(F)(F)F)cc1C1=CCOCC1` [Example 25, 4-(2-(3,6-Dihydro-2H-Pyran-4-Yl)-4-(Trifluoromethyl)Phenyl)-N-(1,2,4-Thiadiazol-5-Yl)-3,4-Dihydro-2H-Benzo[B][1,4]Oxazine-7-Sulfonamide], the IC50 in series [1] was 12.3 nM; in series [2], 214 nM; in series [3], 146 nM.
Regarding `O=S(=O)(Nc1ncns1)c1ccc2c(c1)OCCN2c1ccc(C(F)(F)F)cc1-c1ccncc1` [Example 26, 4-(2-(Pyridin-4-Yl)-4-(Trifluoromethyl)Phenyl)-N-(1,2,4-Thiadiazol-5-Yl)-3,4-Dihydro-2H-Benzo[B][1,4]Oxazine-7-Sulfonamide], the figures for the concentration for half-maximal inhibition (IC50) in series [1], in series [2] and in series [3] were 10.5 nM, 306 nM and 102 nM, respectively.
For `O=S(=O)(Nc1cccnn1)c1ccc2c(c1)OCCN2c1ccc(C(F)(F)F)cc1Cl` [Example 27, 4-(2-Chloro-4-(Trifluoromethyl)Phenyl)-N-(Pyridazin-3-Yl)-3,4-Dihydro-2H-Benzo[B][1,4]Oxazine-7-Sulfonamide], the IC50 in series [1] was 1250 nM; in series [2], above 10000 nM; in series [3], 10700 nM.
Regarding `O=S(=O)(Nc1nncs1)c1ccc2c(c1)OCCN2c1ccc(C(F)(F)F)cc1Cl` [Example 28, 4-(2-Chloro-4-(Trifluoromethyl)Phenyl)-N-(1,3,4-Thiadiazol-2-Yl)-3,4-Dihydro-2H-Benzo[B][1,4]Oxazine-7-Sulfonamide], the IC50 in series [1] is 656 nM; in series [2] it was above 10000 nM; in series [3] it was 2650 nM.
The like results for `Nc1cc(-c2cc(C(F)(F)F)ccc2N2CCOc3cc(S(=O)(=O)Nc4ncns4)ccc32)ccn1` [Example 29, 4-(2-(2-Aminopyridin-4-Yl)-4-(Trifluoromethyl)Phenyl)-N-(1,2,4-Thiadiazol-5-Yl)-3,4-Dihydro-2H-Benzo[B][1,4]Oxazine-7-Sulfonamide] were, in that order, 9.5 nM, 634 nM and 79 nM.
Turning to `O=S(=O)(Nc1ncns1)c1ccc2c(c1)OCCN2c1ccccc1` [Example 30, 4-Phenyl-N-(1,2,4-Thiadiazol-5-Yl)-3,4-Dihydro-2H-Benzo[B][1,4]Oxazine-7-Sulfonamide], the values for the IC50 in series [1], in series [2] and in series [3] were 142 nM, above 10000 nM and 756 nM, respectively.
`N#Cc1cc(C(F)(F)F)ccc1N1CCOc2cc(S(=O)(=O)Nc3ncns3)ccc21` [Example 31, 4-(2-Cyano-4-(Trifluoromethyl)Phenyl)-N-(1,2,4-Thiadiazol-5-Yl)-3,4-Dihydro-2H-Benzo[B][1,4]Oxazine-7-Sulfonamide]: the concentration for half-maximal inhibition (IC50) came out at 16 nM in series [1], 1460 nM in series [2] and 91.4 nM in series [3].
With `O=S(=O)(Nc1ccncn1)c1ccc2c(c1)OCCN2c1ccc(C(F)(F)F)cc1Cl` [Example 32, 4-(2-Chloro-4-(Trifluoromethyl)Phenyl)-N-(Pyrimidin-4-Yl)-3,4-Dihydro-2H-Benzo[B][1,4]Oxazine-7-Sulfonamide], the IC50 in series [1] was 72.5 nM; in series [2], 4770 nM; in series [3], 534 nM.
For `O=S(=O)(Nc1ncns1)c1ccc2c(c1)OCCN2c1cccc2ncccc12` [Example 33, 4-(Quinolin-5-Yl)-N-(1,2,4-Thiadiazol-5-Yl)-3,4-Dihydro-2H-Benzo[B][1,4]Oxazine-7-Sulfonamide], the concentration for half-maximal inhibition (IC50) was 141 nM in series [1], above 10000 nM in series [2] and 1190 nM in series [3].
Regarding `O=S(=O)(Nc1ncns1)c1ccc2c(c1)OCC(c1ccccc1)N2c1ccc(C(F)(F)F)cc1` (stereo not drawn) [Example 34, 3-Phenyl-N-(1,2,4-Thiadiazol-5-Yl)-4-(4-(Trifluoromethyl)Phenyl)-3,4-Dihydro-2H-Benzo[B][1,4]Oxazine-7-Sulfonamide], the IC50 was 2450 nM in series [1], above 10000 nM in series [2] and 3460 nM in series [3].
Turning to `O=S(=O)(Nc1ncns1)c1ccc2c(c1)OCCN2c1cccc(OC(F)(F)F)c1` [Example 35, N-(1,2,4-Thiadiazol-5-Yl)-4-(3-(Trifluoromethoxy)Phenyl)-3,4-Dihydro-2H-Benzo[B][1,4]Oxazine-7-Sulfonamide], the IC50 in series [1] is 43.5 nM; in series [2] it was above 10000 nM; in series [3] it was 138 nM.
For `O=S(=O)(Nc1ncns1)c1ccc2c(c1)OCCN2c1cccc2ccccc12` [Example 36, 4-(Naphthalen-1-Yl)-N-(1,2,4-Thiadiazol-5-Yl)-3,4-Dihydro-2H-Benzo[B][1,4]Oxazine-7-Sulfonamide] the same measures were 31.5 nM, above 10000 nM and 145 nM.
The like results for `COc1ccc(N2CCOc3cc(S(=O)(=O)Nc4ncns4)ccc32)cc1` [Example 37, 4-(4-Methoxyphenyl)-N-(1,2,4-Thiadiazol-5-Yl)-3,4-Dihydro-2H-Benzo[B][1,4]Oxazine-7-Sulfonamide] were, in that order, 207 nM, above 10000 nM and 2200 nM.
The like results for `COCCOc1ccc(N2CCOc3cc(S(=O)(=O)Nc4ncns4)ccc32)cc1` [Example 39, 4-(4-(2-Methoxyethoxy)Phenyl)-N-(1,2,4-Thiadiazol-5-Yl)-3,4-Dihydro-2H-Benzo[B][1,4]Oxazine-7-Sulfonamide] were, in that order, 333 nM, above 10000 nM and 9220 nM.
As to `O=S(=O)(Nc1nccs1)c1ccc2c(c1)OCCN2c1ccc(Cl)cc1` [Example 40, 4-(4-Chlorophenyl)-N-(Thiazol-2-Yl)-3,4-Dihydro-2H-Benzo[B][1,4]Oxazine-7-Sulfonamide], the IC50 in series [1] was 713 nM; in series [2], above 10000 nM; in series [3], 4320 nM.
As for `O=S(=O)(Nc1nccs1)c1ccc2c(c1)OCCN2c1cccc(Cl)c1` [Example 41, 4-(3-Chlorophenyl)-N-(Thiazol-2-Yl)-3,4-Dihydro-2H-Benzo[B][1,4]Oxazine-7-Sulfonamide], the IC50 in series [1] turned out to be 111 nM; in series [2], 4930 nM; in series [3], 640 nM.
On to `Cn1nccc1-c1cc(C(F)(F)F)ccc1N1CCOc2cc(S(=O)(=O)Nc3nccs3)ccc21` [Example 42, 4-(2-(1-Methyl-1H-Pyrazol-5-Yl)-4-(Trifluoromethyl)Phenyl)-N-(Thiazol-2-Yl)-3,4-Dihydro-2H-Benzo[B][1,4]Oxazine-7-Sulfonamide], for which the IC50 is 121 nM in series [1], above 10000 nM in series [2] and 1540 nM in series [3].
As to `O=S(=O)(Nc1nccs1)c1ccc2c(c1)OCCN2c1ccc(C(F)(F)F)cc1Br` [Example 43, 4-(2-Bromo-4-(Trifluoromethyl)Phenyl)-N-(Thiazol-2-Yl)-3,4-Dihydro-2H-Benzo[B][1,4]Oxazine-7-Sulfonamide], the IC50 in series [1] worked out at 115 nM; in series [2] it was 1850 nM; in series [3], 975 nM.
For the compound `CN1CC=C(c2cc(C(F)(F)F)ccc2N2CCOc3cc(S(=O)(=O)Nc4nccs4)ccc32)CC1` [Example 44, 4-(2-(1-Methyl-1,2,3,6-Tetrahydropyridin-4-Yl)-4-(Trifluoromethyl)Phenyl)-N-(Thiazol-2-Yl)-3,4-Dihydro-2H-Benzo[B][1,4]Oxazine-7-Sulfonamide], the IC50 in series [1] is 14 nM; in series [2] it was 3590 nM; in series [3], 68.7 nM.
With `O=S(=O)(Nc1ccncn1)c1ccc2c(c1)OCCN2c1ccc(C(F)(F)F)cc1C1=CCNCC1` [Example 45, N-(Pyrimidin-4-Yl)-4-(2-(1,2,3,6-Tetrahydropyridin-4-Yl)-4-(Trifluoromethyl)Phenyl)-3,4-Dihydro-2H-Benzo[B][1,4]Oxazine-7-Sulfonamide 2,2,2-Trifluoroacetate], the IC50 in series [1] was found to be 6.2 nM; in series [2], 1200 nM; in series [3] it was 135 nM.
In the case of `O=S(=O)(Nc1nccs1)c1ccc2c(c1)OCCN2c1ccccc1Cl` [Example 46, 4-(2-Chlorophenyl)-N-(Thiazol-2-Yl)-3,4-Dihydro-2H-Benzo[B][1,4]Oxazine-7-Sulfonamide], the results for the IC50 in series [1], in series [2] and in series [3] were 165 nM, above 10000 nM and 1080 nM, respectively.
Consider `O=S(=O)(Nc1ccncn1)c1ccc2c(c1)OCCN2c1ccc(C(F)(F)F)cc1Br` [Example 47, 4-(2-Bromo-4-(Trifluoromethyl)Phenyl)-N-(Pyrimidin-4-Yl)-3,4-Dihydro-2H-Benzo[B][1,4]Oxazine-7-Sulfonamide], for which the IC50 amounted to 14.5 nM in series [1], 7930 nM in series [2] and 303 nM in series [3].
As for `COCCNc1cc(C(F)(F)F)ccc1N1CCOc2cc(S(=O)(=O)Nc3ccncn3)ccc21` [Example 48, 4-(2-((2-Methoxyethyl)Amino)-4-(Trifluoromethyl)Phenyl)-N-(Pyrimidin-4-Yl)-3,4-Dihydro-2H-Benzo[B][1,4]Oxazine-7-Sulfonamide], the IC50 in series [1] was 28.5 nM; in series [2], above 10000 nM; in series [3], 719 nM.
On to `N#Cc1cc(C(F)(F)F)ccc1N1CCOc2cc(S(=O)(=O)Nc3nccs3)ccc21` [Example 49, 4-(2-Cyano-4-(Trifluoromethyl)Phenyl)-N-(Thiazol-2-Yl)-3,4-Dihydro-2H-Benzo[B][1,4]Oxazine-7-Sulfonamide], for which the figures for the half-inhibitory concentration (IC50) in series [1], in series [2] and in series [3] were 15 nM, 1150 nM and 193 nM, respectively.
For `CN1CCN(c2cc(C(F)(F)F)ccc2N2CCOc3cc(S(=O)(=O)Nc4nccs4)ccc32)CC1` [Example 50, 4-(2-(4-Methylpiperazin-1-Yl)-4-(Trifluoromethyl)Phenyl)-N-(Thiazol-2-Yl)-3,4-Dihydro-2H-Benzo[B][1,4]Oxazine-7-Sulfonamide 2,2,2-Trifluoroacetate] the same measures were 117 nM, 957 nM and 315 nM.
